Results reported in PubChem BioAssay AID330 (DTP/NCI, 2004).
Values joined by “and” are separate entries in the source; they are usually repeats but may differ in a detail not shown here. Identical values can stand only once. Toxic doses and inconclusive results are not listed.

System: P388 leukemia ip, CD2F1 mice, survival T/C
Test: NCI In Vivo Anticancer Drug Screen. Data for tumor model P388 Leukemia (intraperitoneal) in CD2F1 (CDF1) mice
Details: endpoint: median survival time, higher = longer survival
How it was run: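 Mice carrying the transplanted tumor received test compound or vehicle. Survival was recorded in each group, and the value is the treated-group measurement divided by that of the vehicle-treated control group.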

[1] = dose: 60.0 mg/kg/injection, schedule: Q01DX005 (ip), vehicle: saline with Tween-80
[2] = dose: 100.0 mg/kg/injection, schedule: Q01DX009 (ip), vehicle: saline
[3] = dose: 200.0 mg/kg/injection, schedule: Q01DX009 (ip), vehicle: saline
[4] = dose: 50.0 mg/kg/injection, schedule: Q01DX005 (ip), vehicle: Klucel (hydroxypropylcellulose) (HPC)
[5] = dose: 50.0 mg/kg/injection, schedule: Q01DX009 (ip), vehicle: Klucel (hydroxypropylcellulose) (HPC)
[6] = dose: 100.0 mg/kg/injection, schedule: Q01DX009 (ip), vehicle: Klucel (hydroxypropylcellulose) (HPC)
[7] = dose: 200.0 mg/kg/injection, schedule: Q01DX009 (ip), vehicle: Klucel (hydroxypropylcellulose) (HPC)

`COC(=O)Nc1nc2ccc(OCCO)cc2[nH]1` was tested, and the T/C (dose: 25.0 mg/kg/injection, schedule: Q01DX005 (ip), vehicle: DMSO) was 104 % of control, the T/C (dose: 50.0 mg/kg/injection, schedule: Q01DX005 (ip), vehicle: DMSO) was 100 % of control and the T/C (dose: 100.0 mg/kg/injection, schedule: Q01DX005 (ip), vehicle: DMSO) was 104 % of control. For the same compound, the T/C (dose: 200.0 mg/kg/injection, schedule: Q01DX005 (ip), vehicle: DMSO) was 103 % of control and the T/C (dose: 400.0 mg/kg/injection, schedule: Q01DX005 (ip), vehicle: DMSO) was 101 % of control.

`CC1CCCCC1NC(=O)NCCOC(=O)OCCNC(=O)NC1CCCCC1C` (stereo not given) was tested, and the T/C (dose: 100.0 mg/kg/injection, schedule: Q04DX003 (ip), vehicle: saline with Tween-80) was 90 % of control, the T/C (dose: 200.0 mg/kg/injection, schedule: Q04DX003 (ip), vehicle: saline with Tween-80) was 86 % of control and the T/C (dose: 400.0 mg/kg/injection, schedule: Q04DX003 (ip), vehicle: saline with Tween-80) was 86 % of control.

For `O=C1Cc2ccccc2C(O)=C1c1cnccn1`, the T/C (dose: 15.0 mg/kg/injection, schedule: Q01DX005 (ip), vehicle: saline with Tween-80) was 93 % of control, the T/C (dose: 30.0 mg/kg/injection, schedule: Q01DX005 (ip), vehicle: saline with Tween-80) was 99 % of control and the T/C [1] was 101 % of control and 102 % of control.

In the case of `Nc1ccc(NCCC2CCCN3CCCCC23)c2c(=O)c3ccccc3sc12` (stereo not given), the T/C (dose: 32.5 mg/kg/injection, schedule: Q01DX005 (ip), vehicle: saline with Tween-80) is reported as 100 % of control, the T/C (dose: 65.0 mg/kg/injection, schedule: Q01DX005 (ip), vehicle: saline with Tween-80) is reported as 100 % of control and the T/C (dose: 80.0 mg/kg/injection, schedule: Q01DX005 (ip), vehicle: saline with Tween-80) is reported as 95 % of control. The T/C (dose: 130.0 mg/kg/injection, schedule: Q01DX005 (ip), vehicle: saline with Tween-80) was 101 % of control, the T/C (dose: 160.0 mg/kg/injection, schedule: Q01DX005 (ip), vehicle: saline with Tween-80) was 104 % of control and the T/C (dose: 260.0 mg/kg/injection, schedule: Q01DX005 (ip), vehicle: saline with Tween-80) was 109 % of control.

For `CC(C)(C)OC(=O)C(Cc1cnc2nc(N)nc(N)c2n1)C(=O)OC(C)(C)C`, the T/C (dose: 3.13 mg/kg/injection, schedule: Q01DX009 (ip), vehicle: distilled water + Tween-80) was 103 % of control, the T/C (dose: 6.25 mg/kg/injection, schedule: Q01DX009 (ip), vehicle: distilled water + Tween-80) was 98 % of control and the T/C (dose: 12.5 mg/kg/injection, schedule: Q01DX009 (ip), vehicle: distilled water + Tween-80) was 95 % of control. The T/C (dose: 25.0 mg/kg/injection, schedule: Q01DX009 (ip), vehicle: distilled water + Tween-80) was 95 % of control and the T/C (dose: 50.0 mg/kg/injection, schedule: Q01DX009 (ip), vehicle: distilled water + Tween-80) was 93 % of control.

In the case of `O=c1c2ccccc2nc2n1OCC2`, the T/C (dose: 50.0 mg/kg/injection, schedule: Q01DX009 (ip), vehicle: saline) is reported as 103 % of control, the T/C [2] is reported as 111 % of control and the T/C [3] is reported as 111 % of control.

With `CCCCCCCCSP(SCCCCCCCC)SCCCCCCCC` the T/C (dose: 50.0 mg/kg/injection, schedule: Q01DX009 (ip), vehicle: saline with Tween-80) was 113 % of control, the T/C (dose: 100.0 mg/kg/injection, schedule: Q01DX009 (ip), vehicle: saline with Tween-80) was 106 % of control and the T/C [2] was 96 % of control. For the same compound, the T/C (dose: 200.0 mg/kg/injection, schedule: Q01DX009 (ip), vehicle: saline with Tween-80) was 103 % of control and the T/C [3] was 102 % of control and 91 % of control.

For `COc1ccc(OCC2=NCCc3ccccc32)cc1`, the T/C [4] was 99 % of control, the T/C (dose: 100.0 mg/kg/injection, schedule: Q01DX005 (ip), vehicle: Klucel (hydroxypropylcellulose) (HPC)) was 107 % of control and the T/C (dose: 200.0 mg/kg/injection, schedule: Q01DX005 (ip), vehicle: Klucel (hydroxypropylcellulose) (HPC)) was 109 % of control.

For `CC1(C)N=C(N)N=C(N)N1c1ccc(OCc2ccc(C(=O)Nc3cccc(S(=O)(=O)F)c3)cc2)c(Cl)c1`, the T/C (dose: 50.0 mg/kg/injection, schedule: Q04DX003 (ip), vehicle: saline) was 181 % of control and the T/C (dose: 100.0 mg/kg/injection, schedule: Q04DX003 (ip), vehicle: saline) was 86 % of control.

With `COC1=C(N2CC2)C(=O)C(OC)=C(N2CC2)C1=O` the T/C (dose: 4.0 mg/kg/injection, schedule: Q04DX003 (ip), vehicle: saline with Tween-80) was 159 % of control.

With `S=c1[nH]c2ccccc2n2cccc12` the T/C [5] was 108 % of control, the T/C [6] was 108 % of control and the T/C [7] was 106 % of control.

For `CCN(CC)CCOC(=O)C(C(=O)OCCN(CC)CC)C1CCCC1`, the T/C (dose: 50.0 mg/kg/injection, schedule: Q01DX005 (ip), vehicle: saline) was 94 % of control, the T/C (dose: 100.0 mg/kg/injection, schedule: Q01DX005 (ip), vehicle: saline) was 92 % of control and the T/C (dose: 200.0 mg/kg/injection, schedule: Q01DX005 (ip), vehicle: saline) was 100 % of control.

With `C=C1C[C@](C(N)=O)(C2OC3OC(C)(C)OC3C2OCc2ccccc2)OC1=O` (stereo not given in full) the T/C (dose: 25.0 mg/kg/injection, schedule: Q01DX005 (ip), vehicle: saline with Tween-80) was 103 % of control, the T/C (dose: 50.0 mg/kg/injection, schedule: Q01DX005 (ip), vehicle: saline with Tween-80) was 100 % of control and the T/C (dose: 100.0 mg/kg/injection, schedule: Q01DX001 (ip), vehicle: saline with Tween-80) was 96 % of control. For the same compound, the T/C (dose: 100.0 mg/kg/injection, schedule: Q01DX005 (ip), vehicle: saline with Tween-80) was 92 % of control.

In the case of `CN(C)c1ncnc2c1ncn2C1CCCCO1` (stereo not given), the T/C (dose: 12.5 mg/kg/injection, schedule: Q01DX005 (ip), vehicle: Klucel (hydroxypropylcellulose) (HPC)) is reported as 103 % of control, the T/C (dose: 25.0 mg/kg/injection, schedule: Q01DX005 (ip), vehicle: Klucel (hydroxypropylcellulose) (HPC)) is reported as 105 % of control and the T/C [4] is reported as 100 % of control.

`COc1cc2c(c(OC)c1OC)C1=NNC(=O)C1(C)CC2` (stereo not given) was tested, and the T/C (dose: 100.0 mg/kg/injection, schedule: Q04DX003 (ip), vehicle: Klucel (hydroxypropylcellulose) (HPC)) was 91 % of control, the T/C (dose: 200.0 mg/kg/injection, schedule: Q04DX003 (ip), vehicle: Klucel (hydroxypropylcellulose) (HPC)) was 88 % of control and the T/C (dose: 400.0 mg/kg/injection, schedule: Q04DX003 (ip), vehicle: Klucel (hydroxypropylcellulose) (HPC)) was 92 % of control.

`COc1cccc2c1C(=O)c1c(O)c3c(c(O)c1C2=O)C[C@@](O)(C(=O)CO)C[C@@H]3OC1CC(NCc2ccccc2)C(O)C(C)O1` (stereo not given in full) was tested, and the T/C (dose: 0.39 mg/kg/injection, schedule: Q01DX009 (ip), vehicle: water) was 150 % of control, the T/C (dose: 0.78 mg/kg/injection, schedule: Q01DX009 (ip), vehicle: water) was 151 % of control and the T/C (dose: 1.56 mg/kg/injection, schedule: Q01DX009 (ip), vehicle: water) was 153 % of control and 158 % of control. The T/C (dose: 3.13 mg/kg/injection, schedule: Q01DX009 (ip), vehicle: water) was 175 % of control and 194 % of control, the T/C (dose: 3.89 mg/kg/injection, schedule: Q04DX003 (ip), vehicle: water) was 163 % of control and the T/C (dose: 6.25 mg/kg/injection, schedule: Q01DX009 (ip), vehicle: water) was 107 % of control and 224 % of control. For the same compound, the T/C (dose: 6.48 mg/kg/injection, schedule: Q04DX003 (ip), vehicle: water) was 175 % of control, the T/C (dose: 10.8 mg/kg/injection, schedule: Q04DX003 (ip), vehicle: water) was 201 % of control and the T/C (dose: 18.0 mg/kg/injection, schedule: Q04DX003 (ip), vehicle: water) was 105 % of control. The T/C (dose: 30.0 mg/kg/injection, schedule: Q04DX003 (ip), vehicle: water) was 94 % of control.

`CNC(=O)Nc1nncs1` was tested, and the T/C [1] was 106 % of control, the T/C (dose: 120.0 mg/kg/injection, schedule: Q01DX005 (ip), vehicle: saline with Tween-80) was 104 % of control and the T/C (dose: 240.0 mg/kg/injection, schedule: Q01DX005 (ip), vehicle: saline with Tween-80) was 106 % of control.

For `O=c1ccc(=O)n(CCc2ccccn2)[nH]1`, the T/C [5] was 112 % of control, the T/C [6] was 109 % of control and the T/C [7] was 108 % of control. The T/C (dose: 400.0 mg/kg/injection, schedule: Q01DX009 (ip), vehicle: Klucel (hydroxypropylcellulose) (HPC)) was 106 % of control.

`S=P(N1CCCC1)(N1CC1)N1CC1` was tested, and the T/C (dose: 2.2 mg/kg/injection, schedule: Q01DX009 (ip), vehicle: saline) was 111 % of control, the T/C (dose: 3.3 mg/kg/injection, schedule: Q01DX009 (ip), vehicle: saline) was 155 % of control and the T/C (dose: 7.5 mg/kg/injection, schedule: Q01DX009 (ip), vehicle: saline) was 177 % of control. The T/C (dose: 11.0 mg/kg/injection, schedule: Q04DX003 (ip), vehicle: saline with Tween-80) was 104 % of control, the T/C (dose: 25.0 mg/kg/injection, schedule: Q04DX003 (ip), vehicle: saline with Tween-80) was 200 % of control and the T/C (dose: 37.5 mg/kg/injection, schedule: Q04DX003 (ip), vehicle: saline with Tween-80) was 90 % of control.
